According to publication PMC4653046 (Bioorganic & medicinal chemistry letters, 2015):
Converted amounts (≈) assume the structure as drawn.

What was measured:
[1] = tested on: BJ-derived cell lines (BJeLR, DRD, BJeHLT, BJeH); test: potency and genotype-selective lethality in BJ-derived isogenic cell lines; type: cell-based, human; conditions: for potency in HRAS^G12V-overexpressing cell lines: BJeLR, DRD cells
[2] = metabolic stability in mouse liver microsomes; type: in vitro ADME; conditions: for half-life: mouse, liver microsomes, pH 7.4; for metabolic stability: mouse liver microsomes, 37 °C, pH 7.4, NADPH-generating system
water solubility = type: physicochemical
[3] = tested on: HT-1080 human fibrosarcoma cell line; test: growth inhibition of HT-1080 cells; type: cell-based; conditions: for growth inhibition: HT-1080 cells, 48 h treatment
[4] = stability in mouse plasma; type: in vitro ADME; conditions: 500 ng/mL, 37 °C, up until 120 min
[5] = tested on: NRAS mutant human HT-1080 fibrosarcoma; conditions: nude mice; cited from earlier work

SMILES	potency in HRAS^G12V-overexpressing cell lines [1]	half-life [2] [min]	metabolic stability [2]	further results
CC(C)Oc1ccc(C=O)cc1-n1c(CN2CCN(C(=O)COc3ccc(Cl)cc3)CC2)nc2ccccc2c1=O [AE, aldehyde erastin, reference compound]	low nanomolar potencies	< 5		
C=CCN1CCN(CC(=O)c2ccc(OC(C)C)c(-n3c(CN4CCN(C(=O)COc5ccc(Cl)cc5)CC4)nc4ccccc4c3=O)c2)CC1 [APKE, N-allylpiperazine ketone erastin]			medium to poor metabolic stability	
CCOc1ccccc1-n1c(C(C)N2CCN(C(=O)COc3ccc(Cl)cc3)CC2)nc2ccccc2c1=O (centres unmarked) [Erastin, erastin]				solubility (water solubility): 86 µM (≈ 47 µg/mL)
CC(C)Oc1ccc(C(=O)CF)cc1-n1c(CN2CCN(C(=O)COc3ccc(Cl)cc3)CC2)nc2ccccc2c1=O [FKE, α-fluoro ketone erastin]	low nanomolar potencies		medium to poor metabolic stability	
CC(C)Oc1ccc(C(=O)Cn2ccnc2)cc1-n1c(CN2CCN(C(=O)COc3ccc(Cl)cc3)CC2)nc2ccccc2c1=O [IKE, imidazole ketone erastin]	low nanomolar potencies			selective lethality to BJeLR and DRD cells compared to BJeH and BJeHLT cells ([1]; 4 isogenic BJ-derived cell lines): selective lethality; growth inhibition [3]: complete growth inhibition; GI50 ([3]; Homo sapiens, HT-1080, 48 h): 310 nM; stability in mouse plasma [4]: remained stable
CC(=O)c1ccc(OC(C)C)c(-n2c(CN3CCN(C(=O)COc4ccc(Cl)cc4)CC3)nc3ccccc3c2=O)c1 [KE]	low nanomolar potencies	< 5		
CC(C)Oc1ccc(C(=O)CN2CCN(C)CC2)cc1-n1c(CN2CCN(C(=O)COc3ccc(Cl)cc3)CC2)nc2ccccc2c1=O [MPKE, N-methylpiperazine ketone erastin]			medium to poor metabolic stability	
CC(C)Oc1ccc(CN2CCNCC2)cc1-n1c(CN2CCN(C(=O)COc3ccc(Cl)cc3)CC2)nc2ccccc2c1=O [PE, piperazine erastin]				effect on the growth of already established tumors [5]: limited effect
CC(C)Oc1ccc(C(=O)CN2CCNCC2)cc1-n1c(CN2CCN(C(=O)COc3ccc(Cl)cc3)CC2)nc2ccccc2c1=O [PKE, piperazine ketone erastin]	low nanomolar potencies	> 90		growth inhibition [3]: complete growth inhibition; stability in mouse plasma [4]: remained stable
COc1ccc(CN2CCN(CC(=O)c3ccc(OC(C)C)c(-n4c(CN5CCN(C(=O)COc6ccc(Cl)cc6)CC5)nc5ccccc5c4=O)c3)CC2)cc1 [PMB-PKE, N-p-methoxybenzylpiperazine ketone erastin]			medium to poor metabolic stability	
